These are literature values, as cited in patent publication US7700778B2, “Acylated piperidine derivatives as melanocortin-4 receptor agonists” (Merck Sharp & Dohme Corp., priority 2001, dated 2010).

The test system of data set [1] is males with psychogenic erectile dysfunction.
For data set [2] the following is noted: in vivo, po.
For data set [3], the system named is men.

As for “Ac-Nle-c[Asp-His-DPhe-Arg-Trp-Lys]-NH2 [MT-II]”, in data set [1] (in vivo), the duration of action result is “approximately 2.5 hours” and the “time to onset of erection” value is 10 to 20 min. For the same compound, the response rate in data set [1] (injected intramuscularly or subcutaneously) is recorded as 75%. Further, the “absorption into the systemic circulation” value in data set [2] is “not absorbed into the systemic circulation”.
For `Cc1ccc(N(CC2=NCCN2)c2cccc(O)c2)cc1` [phentolamine], in data set [3] (after an oral dose), the duration of effect is 2 h and the onset of action was 5 to 30 min. The “share of men/patients in whom effective (adequate response)” value in data set [3] (oral) was 35-40%.
